Experimental data as given in EP4603105A1, “PHARMACEUTICAL COMPOSITION CONTAINING CYCLIC COMPOUND HAVING SELECTIVE KRAS INHIBITORY EFFECT AGAINST HRAS AND NRAS” (CHUGAI SEIYAKU KABUSHIKI KAISHA, priority 2022, dated 2024).
*1 amine or outer side, *2 acyl side, *3 side chain or, on linkers, in order; H or OH if unused. Where a SMILES comes first, the peptide text is derived from it. Bridges are numbered along the chain shown (N, C = ends). [ ]: non-standard residue; d: D form. The star is where a group is joined. hPhe(3-Cl-4-CF3) = N[C@@H](CCc1ccc(C(F)(F)F)c(Cl)c1)C(=O)O; NPrPhe(4-CF3) = CCCN[C@@H](Cc1ccc(C(F)(F)F)cc1)C(=O)O; X5 = Cc1ccc(C[C@@H](C(=O)[*:2])N(CCC(C)(C)C)[*:1])cc1; Abu(4,4,4-F3) = N[C@@H](CC(F)(F)F)C(=O)O; NMeGly(cPent) = CN[C@H](C(=O)O)C1CCCC1; X9 = CC1(C)CN([*:1])[C@@H]1C(=O)[*:2]; NMeD = CN[C@@H](CC(=O)O)C(=O)O; NMeL = CN[C@@H](CC(C)C)C(=O)O; Morpholide = C1CN(*)CCO1; NMeA = CN[C@@H](C)C(=O)O; Ac5c = NC1(C(=O)O)CCCC1; Aze = O=C(O)[C@@H]1CCN1; Sar = CNCC(=O)O

Columns and labels:
HRAS wild-type protein = HRAS wild-type protein (Homo sapiens, UniProt P01112); experiment: Binding to HRAS by surface plasmon resonance (SPR), KD and KD ratio to KRAS
How it was run: (§1)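 Each cycle, GDP-bound biotin-Avi RAS was captured (~100–300 RU), compound concentrations were injected low to high for 75 s each at 100 µL/min, then the chip was regenerated. Buffer: HBS pH 7.4, 10 mM MgCl2, 10 µM GDP, 1 mM DTT, 4% DMSO; 30°C. KD from a 1:1 binding model.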

[1] = biological target: GDP-bound NRAS wild-type protein (Homo sapiens, UniProt P01111); experiment: Binding to NRAS by surface plasmon resonance (SPR), KD and KD ratio to KRAS
How it was run: as §1

[2] = biological target: GDP-bound KRAS wild-type protein (Homo sapiens, UniProt P01116); experiment: Binding to KRAS by surface plasmon resonance (SPR), dissociation constant KD
Protocol: Surface plasmon resonance was used to analyze the binding affinity of compounds for KRAS, NRAS, and HRAS. The apparatus used was Biacore 8K, 8K+, or T200 (GE Healthcare), and the running buffer used was HBS (10 mM HEPES-NaOH, 150 mM NaCl, pH 7.4) containing 1 mM DTT, 10 mM MgCl2, 0.01% Tween 20, 10 µM GDP, and 4% DMSO.
Biotinylated Avi-tag fusion KRAS, NRAS, and HRAS proteins were expressed in E. coli BL21 (DE3) strains, and after cells were homogenized, they were purified using Streptavidin Mutein Matrix and Superdex 75. After purification, GDP-loaded KRAS, NRAS, and HRAS proteins were immobilized on the surface of Sensor Chip CAP (Cytiva) coated with Biotin CAPture Reagent in an immobilization amount of about 100 to 300 RU. Binding of each compound was evaluated by the Single Cycle Kinetics method, and a running buffer or a compound solution was added to the RAS protein non-immobilized surface and the immobilized surface to obtain a binding response. The flow rate was set to 100 µL/min, and in the compound-adding cycle, compound solutions having different concentrations were intermittently added for 75 seconds each, starting from a low concentration. […] In the blank cycle, a running buffer was intermittently added and not the compound solution. The Biotin CAPture Reagent and RAS proteins were immobilized for each cycle, and at the end of each cycle, the sensor chip was regenerated by the regeneration solution appended to the Biotin CAPture Kit (Cytiva). Measurement was carried out at 30°C.
The resulting sensorgram was subjected to curve fitting based on a 1:1 binding model on Biacore Insight Evaluation Software or T200 Evaluation Software, and thereby the dissociation constant KD of each compound with respect to KRAS, NRAS, and HRAS was determined. […] Blank indicates a compound from which the KD value with respect to NRAS or HRAS was not obtained.

[3] = tested on: human lung cancer strain NCI-H441; format: cell-based
How it was run: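 Signal came from […] measured per well once the reagent was added. Beforehand, cells were cultured at 37°C and 5% carbon dioxide on a compound series serially diluted in dimethyl sulfoxide.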

[4] = ratio of KD for HRAS wild-type protein to KD for KRAS
[5] = ratio of KD for GDP-bound NRAS wild-type protein to KD for KRAS
[6] = ratio of the KD value with respect to HRAS wild-type protein to the KD value with respect to KRAS
[7] = ratio of the KD value with respect to GDP-bound NRAS wild-type protein to the KD value with respect to KRAS
[8] = Single Cycle Kinetics, 1:1 binding model

Sequence of GDP-bound NRAS wild-type protein (P01111 whole entry): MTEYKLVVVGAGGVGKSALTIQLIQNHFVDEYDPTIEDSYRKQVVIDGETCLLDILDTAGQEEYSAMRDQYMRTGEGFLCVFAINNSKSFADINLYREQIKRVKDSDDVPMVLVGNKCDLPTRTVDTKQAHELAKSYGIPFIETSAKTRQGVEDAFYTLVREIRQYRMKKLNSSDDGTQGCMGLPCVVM
Sequence of GDP-bound KRAS wild-type protein (P01116 1-188 isoform P01116-2): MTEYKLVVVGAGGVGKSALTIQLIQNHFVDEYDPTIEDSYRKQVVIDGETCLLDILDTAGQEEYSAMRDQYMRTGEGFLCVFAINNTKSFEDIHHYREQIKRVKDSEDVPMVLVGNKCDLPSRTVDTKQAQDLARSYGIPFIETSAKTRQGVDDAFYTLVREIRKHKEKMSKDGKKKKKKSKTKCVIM
Sequence of HRAS wild-type protein (P01112 whole entry): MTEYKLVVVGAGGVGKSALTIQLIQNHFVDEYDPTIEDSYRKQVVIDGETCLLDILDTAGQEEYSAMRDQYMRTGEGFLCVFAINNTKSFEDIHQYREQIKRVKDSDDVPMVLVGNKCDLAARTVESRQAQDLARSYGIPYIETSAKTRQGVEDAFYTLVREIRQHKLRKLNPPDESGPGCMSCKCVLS

SMILES	HRAS /KRAS (HRAS wild-type protein; [4])	NRAS /KRAS [1, 5]	Kd ([2]; 1:1 binding model)	IC50 [3]	HRAS /KRAS (HRAS wild-type protein; [6])	NRAS /KRAS [1, 7]	Kd [2, 8]	Kd ([2]; Single Cycle Kinetics)
CCCN1C(=O)[C@@H]2CCN2C(=O)[C@H]2N(CC2(C)C)C(=O)[C@H]([C@@H](C)CC)NC(=O)[C@H](CC(C)C)N(C)C(=O)C[C@@H](C(=O)N2CCOCC2)N(C)C(=O)[C@H](C2CCCC2)N(C)C(=O)C2(CCCC2)NC(=O)[C@@H]2CCCN2C(=O)[C@H](CCc2ccc(C(F)(F)F)c(Cl)c2)NC(=O)CN(C)C(=O)[C@@H]1Cc1ccc(C(F)(F)F)cc1 [PP0277] ([NMeL]I[X9][Aze][NPrPhe(4-CF3)][Sar][hPhe(3-Cl-4-CF3)]P[Ac5c][NMeGly(cPent)][NMeD]-Morpholide; lactam N-11)	C (A compound having a KD ratio of 0.1 or more and less than 3 is denoted as C)	C (A compound having a KD ratio of 0.1 or more and less than 3 is denoted as C)	0.53 nM	6.7 nM				
CCCN1C(=O)CN(C)C(=O)[C@@H]2CCN2C(=O)[C@H](CC(F)(F)F)NC(=O)[C@H](CC(C)C)N(C)C(=O)C[C@@H](C(=O)N2CCOCC2)N(C)C(=O)[C@H](C2CCCC2)N(C)C(=O)C2(CCCC2)NC(=O)[C@@H]2CCCN2C(=O)[C@H](CCc2ccc(C(F)(F)F)c(Cl)c2)NC(=O)CN(C)C(=O)[C@@H]1Cc1ccc(C(F)(F)F)cc1 [PP0304] ([NMeL][Abu(4,4,4-F3)][Aze][Sar][NPrPhe(4-CF3)][Sar][hPhe(3-Cl-4-CF3)]P[Ac5c][NMeGly(cPent)][NMeD]-Morpholide; lactam N-11)	B (a compound having 3 or more and less than 10 is denoted as B)	B (a compound having 3 or more and less than 10 is denoted as B)	1.9 nM	112 nM				
CC[C@H](C)[C@@H]1NC(=O)[C@H](CC(C)C)N(C)C(=O)C[C@@H](C(=O)N2CCOCC2)N(C)C(=O)[C@H](C2CCCC2)N(C)C(=O)C2(CCCC2)NC(=O)[C@@H]2CCCN2C(=O)[C@H](CCc2ccc(C(F)(F)F)c(Cl)c2)NC(=O)CN(C)C(=O)[C@H](Cc2ccccc2)N2CC=CC[C@@H](C2=O)N(C)C(=O)CN(C)C1=O [PP0528]				21.8 nM	C (A compound having a KD ratio of 0.1 or more and less than 3 is denoted as C)	C (A compound having a KD ratio of 0.1 or more and less than 3 is denoted as C)	0.37 nM	
CC[C@H](C)[C@@H]1NC(=O)[C@H](CC(C)C)N(C)C(=O)C[C@@H](C(=O)N2CCOCC2)N(C)C(=O)[C@H](C2CCCC2)N(C)C(=O)C2(CCCC2)NC(=O)[C@@H]2CCCN2C(=O)[C@H](CCc2ccc(C(F)(F)F)c(Cl)c2)NC(=O)CN(C)C(=O)[C@H](Cc2ccc(C)cc2)N(CCC(C)(C)C)C(=O)[C@@H]2CCN2C(=O)[C@H](C)N(C)C1=O [PP0087] ([NMeL]I[NMeA][Aze][X5][Sar][hPhe(3-Cl-4-CF3)]P[Ac5c][NMeGly(cPent)][NMeD]-Morpholide; lactam N-11)	C (A compound having a KD ratio of 0.1 or more and less than 3 is denoted as C)	C (A compound having a KD ratio of 0.1 or more and less than 3 is denoted as C)	0.75 nM	24 nM				
CCC[C@H]1C(=O)N[C@@H](C(CC)CC)C(=O)N(C)CC(=O)N(C)[C@H]2C/C=C\CCN(C2=O)[C@@H](Cc2ccc(C)cc2)C(=O)N(C)CC(=O)N[C@@H](CCc2ccc(C(F)(F)F)c(Cl)c2)C(=O)N2C[C@H](OCC)C[C@H]2C(=O)NC2(CC(C)(C)C2)C(=O)N(C)[C@@H](CC(C)C)C(=O)N(C)[C@H](C(=O)N(C)C)CC(=O)N1C [PP2202]				94.7 nM	A (a compound having 10 or more and less than 20 is denoted as A)	A (a compound having 10 or more and less than 20 is denoted as A)	4.9 nM	
CCO[C@@H]1C[C@H]2C(=O)NC3(CCC3)C(=O)N(C)[C@@H](C3CCCC3)C(=O)N(C)[C@H](C(=O)N(C)C)CC(=O)N(C)[C@@H](CC(C)C)C(=O)N[C@@H]([C@@H](C)CC)C(=O)N(C)CC(=O)N(C)[C@H]3C[C@@H](C)CCN(C3=O)[C@@H](Cc3ccc(C(F)(F)F)cc3)C(=O)N(C)CC(=O)N[C@@H](CCc3cc(F)c(C(F)(F)F)c(F)c3)C(=O)N2C1 [PP1018]	B (a compound having 3 or more and less than 10 is denoted as B)	C (A compound having a KD ratio of 0.1 or more and less than 3 is denoted as C)		6.8 nM				0.017 nM
